Experimental findings from US5989846A, “Assays to identify inducers of plant defense resistance” (Rutgers, The State University of New Jersey, priority 1995, dated 1999) are described below.

What is called inhibition is the relative decrease from the control value, in per cent.

The structures appear in SMILES notation.

Assay [1] has as its target T1, horseradish peroxidase (Armoracia rusticana, UniProt P00433).
T1 construct: purchased Sigma
T1 sequence (P00433 31-353): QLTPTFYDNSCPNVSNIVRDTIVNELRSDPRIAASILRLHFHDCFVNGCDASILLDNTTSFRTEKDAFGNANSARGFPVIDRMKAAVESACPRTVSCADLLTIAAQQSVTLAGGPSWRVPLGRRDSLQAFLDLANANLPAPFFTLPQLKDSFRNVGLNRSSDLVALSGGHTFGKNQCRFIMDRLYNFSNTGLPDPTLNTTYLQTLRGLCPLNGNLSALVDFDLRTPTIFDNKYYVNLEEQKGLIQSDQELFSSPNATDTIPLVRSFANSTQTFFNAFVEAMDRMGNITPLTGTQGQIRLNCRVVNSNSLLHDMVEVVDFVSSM
Put plainly: Horseradish peroxidase activity. Type of assay: biochemical. As for the experimental part:
Horseradish peroxidase (1 mg; obtained from Sigma) was dissolved in 1.5 ml 200 mM potassium phosphate, pH 6.2, containing 150 mM NaCl. Following a 15 minute incubation at room temperature, the enzyme solution was centrifuged (10,000 g, 10 minutes). After buffer exchange (PD-10, equilibrated with 25 mM potassium phosphate, pH 6.2), the protein concentration was adjusted to 0.5 mg/ml.
Guaiacol peroxidase activity was determined by the method of Chance and Maehly (Methods Enzymol. 2: 764 (1955)) using guaiacol as the substrate.
The formation of tetraguaiacol was monitored at 470 nm. The reaction mixture contained 0.25% guaiacol and 100 mM hydrogen peroxide in 20 mM potassium phosphate, pH 6.2. The amount of protein per 1 ml assay was […]. The reaction was measured for five minutes. The assay for horseradish peroxidase was identical, except that only 0.2-0.5 μg protein was used.

Assay [2] concerns catalase. Put plainly: Catalase activity of crude extracts. Type of assay: biochemical. From the text:
In the presence of SA, the catalase activity of the highly purified SABP was inhibited by 80% (Table 6). A similar level of inhibition of catalase activity by SA (^- 70%) was also observed with crude extracts; inhibition appeared to be reversible since the catalase activity could be largely recovered by extensive dialysis. To assess the functional relevance of catalase inhibition by SA, several SA analogues, with or without biological activity in inducing plant PR genes and disease resistance, were compared for their ability to inhibit the catalase activity of SABP (Table 6).

Consider `O=C(O)c1ccccc1O` [salicylic acid, 2-hydroxybenzoic acid], for which, in assay [1] (HRP, 100 μM compound), the Activity was 251 ± 11 μmols of oxidized substrate mi and the inhibition at 100 µM is -4%. For the same compound, in assay [1] (HRP, 1,000 μM compound), the Activity is reported as 237 ± 21 μmols of oxidized substrate mi and the inhibition at 1000 µM came to 1%. In addition, in assay [2] (crude extracts), the “Inhibition of catalase activity” value is recorded as roughly 70%. Also, in assay [2] (extensive dialysis), the “Reversibility of catalase inhibition” value is reported as “reversible”.
